According to patent publication US10300155B2, “Alpha-synuclein ligands” (Washington University, priority 2015, dated 2019):
“And” between values parts separate entries of the source, which are not always exact repeats. Identical values can stand only once. Like-named read-outs stand apart in the source and are kept apart here.

Molecular target: T1, α-synuclein fibrils (Homo sapiens, UniProt P37840)
T1 construct: made in house; host or cells: E. coli BL21(DE3)RIL
Test: ThT competitive assay for α-synuclein fibrils (Table 1)
Format: binding
Details: for EC50: α-synuclein fibrils
Experimental: Upon binding to amyloid fibrils, a peak at approximately 440 nm becomes dominant with the fluorescent emission maximum shifted to 480 nm. This is accompanied by a strong enhancement of the fluorescence.
α-Synuclein recombinant protein was produced in E. coli. […] Freshly transformed BL21 colonies were inoculated into 2 L baffled flasks containing 250 mL sterilized TB (1.2% bactotryptone, 2.4% yeast extract, 0.4% glycerol, 0.17 M KH2PO4, 0.72 M K2HPO4) with 50 μg/ml ampicillin, and incubated overnight at 37° C. with shaking.
To determine the concentration of fibrils, the reaction mixture (100 μL) was centrifuged at 18,000×g for 10 minutes to separate fibrils from monomer. The α-synuclein monomer and other soluble proteins in the supernatant were removed, and the fibril pellet was resuspended in 100 μL solution of Tris-HCl (20 mM) and NaCl (100 mM). This fibril suspension was used in a bicinchoninic acid (BCA) protein assay along with a bovine serum albumin (BSA) standard curve to determine the concentration of fibrils in the 72 hour fibril reaction mixture.
To prepare the fibrils for performing binding assays, the fibril reaction mixture prepared above was centrifuged at 18,000×g for 10 minutes.
Once the ThT-α-synuclein saturation binding curve and dissociation constant (Kd) were determined the competitive assay for determining the binding affinity of various test compounds was conducted. […] The mixture was incubated at room temperature for 60 minutes on the shaking plate. The fluorescent intensity for each cell was measured by the fluorescence reader at λex and λem. The Ki value for each compound was calculated by the corresponding inhibition curve.
The Ki values were derived from the EC50 values using the Cheng-Prusoff equation: Ki=EC50/(1+[radioligand]/Kd). See FIGS. 17.1-31.2 for the inhibition curves for each compound in the ThioT competitive binding assay.

[1] = average, read-out: Ki (nM) α-syn (avg)
[2] = individual determinations, read-out: Ki (nM) α-syn
[3] = average, read-out: EC50 (nM) EC50 (avg)
[4] = individual determinations, read-out: EC50 (nM) EC50

Row | SMILES | Ki [1] | Ki [2] | EC50 [3] | EC50 [4]
1 | O=[N+]([O-])c1ccc2nc(/C=C/c3cnccn3)ccc2c1 [TZ-36-20] | 926 nM | 926 nM | 2420 nM | 2420 nM
2 | Fc1ccc2nc(/C=C/c3cnccn3)ccc2c1 [TZ-36-22] | 109 nM | 109 nM | 286 nM | 286 nM
3 | Brc1ccc2nc(/C=C/c3cnccn3)ccc2c1 [TZ-36-24] | 453 nM | 453 nM | 1190 nM | 1190 nM
4 | COc1ccc2nc(/C=C/c3ccnc(F)c3)ccc2c1 [TZ-36-26-2T] | 434 nM |  | 1140 nM | 
5 | COc1ccc2nc(/C=C/c3ccsc3)ccc2c1 [TZ-36-30] | 122 nM | 122 nM | 320 nM | 320 nM
6 | COc1ccc2nc(/C=C/c3ccccn3)ccc2c1 [TZ-36-34] | 193 nM | 193 nM | 504 nM | 504 nM
7 | COc1ccc2nc(/C=C/c3ccc(Cl)nc3)ccc2c1 [TZ-36-38] | 39 nM | 31 nM and 47 nM | 101 nM | 80 nM and 122 nM
8 | COc1ccc2nc(/C=C/c3cccnc3Cl)ccc2c1 [TZ-36-40] | 62 nM | 62 nM | 163 nM | 163 nM
9 | COc1ccc2nc(/C=C/c3ccnc(Cl)c3)ccc2c1 [TZ-36-42] | 54 nM | 52 nM and 56 nM | 140 nM | 136 nM and 145 nM
10 | COc1ccc2nc(/C=C/c3cccnc3C)ccc2c1 [TZ-36-44] | 289 nM | 289 nM | 755 nM | 755 nM
11 | COc1ccc2nc(/C=C/c3ccncc3Br)ccc2c1 [TZ-36-46] | 168 nM | 140 nM and 195 nM | 437 nM | 365 nM and 509 nM
12 | COc1ccc2nc(/C=C/c3ccncc3Cl)ccc2c1 [TZ-36-48] | 414 nM | 414 nM | 1080 nM | 1080 nM
13 | COc1ccc2nc(/C=C/c3cccs3)ccc2c1 [TZ-36-50] | 403 nM | 403 nM | 1050 nM | 1050 nM
14 | COc1ccc2nc(/C=C/c3ccco3)ccc2c1 [TZ-36-52] | 316 nM | 316 nM | 827 nM | 827 nM
15 | COc1ccc(/C=C/c2ccc(-c3nccs3)s2)cc1 [TZ-37-96] | 98.5 nM | 102 nM and 95 nM |  | 
